Experimental data: US12691110B2 (Massachusetts Eye and Ear Infirmary, priority 2022, dated 2026)

Columns and labels:
C-PVR cells = assay: CyQuant cell proliferation assay in human patient derived primary cultures of PVR; type: cell-based
Method: Twelve candidate drugs were tested at 2 concentrations at 72 hours for their effects on proliferation and cytotoxicity in C-PVR cells. […] Each anti-proliferative drug was tested at 2 concentrations determined by using the IC50 of each drug. The data was expressed as percent cell inhibition.
The cells were washed and the CyQuant Direct nucleic acid stain was added and incubated at 37 degrees in the incubator. Fluorescence read outs were measured at wavelengths as instructed in the protocol.

human PVR explants = assay: Ex vivo human PVR explant outgrowth and sprouting model; type: cell-based; settings: for total branch length of outgrowths: vehicle 167 mm; for sprouting distance from the explant (in words): 3-10 days
[1] = Homo sapiens, 72 hours, C-PVR cells
[2] = Homo sapiens, 5 μM, 72 hours, C-PVR cells

Molecule COc1cccc2c1C(=O)c1c(O)c3c(c(O)c1C2=O)C[C@@](O)(C(C)=O)C[C@@H]3O[C@H]1C[C@H](N)[C@H](O)[C@H](C)O1 [Daunorubicin] has a reduction in proliferation (C-PVR cells; 15 nM, 72 hours, C-PVR cells) of 50% and a reduction in proliferation (C-PVR cells; 30 nM, 72 hours, C-PVR cells) of 53%.

With O=C1CN=C(c2ccc[nH]2)c2cc(Cl)ccc2N1 [RUNX1 inhibitor, Ro5-3335] the “inhibition of growth of C-PVR cells (in words)” value (C-PVR cells; 150 μM alone, 48 and 72 hours) was “efficacious at inhibiting growth of C-PVR cells”.

With CC[C@@]1(O)C(=O)OCc2c1cc1n(c2=O)Cc2cc3c(CN(C)C)c(O)ccc3nc2-1 [Topotecan, topotecan] the decrease in proliferation (C-PVR cells; 40 nM, 72 hours, C-PVR cells) was 54%, the decrease in proliferation (C-PVR cells; 80 nM, 72 hours, C-PVR cells) was 53% and the “inhibition of proliferation of C-PVR cells (in words)” value (C-PVR cells; concentrations of 40 nM and 80 nM, FIG. 1B) was “effectively inhibited the proliferation of C-PVR cells”. For the same molecule, the “total branch length of outgrowths” value (human PVR explants; 40 nM (so in the source)) was 34 mm and the “sprouting distance from the explant (in words)” value (human PVR explants; 80 nM alone) was “statistically significant reduction in sprouting distance”.

Cn1c(CCCC(=O)O)nc2cc(N(CCCl)CCCl)ccc21 [bendamustine] gave an inhibition at 1 µM (C-PVR cells; [1]) of 25% and an inhibition at 5 µM (C-PVR cells; [2]) of 20%.

With COC(=O)N[C@H](C(=O)N1CCC[C@H]1c1ncc(-c2ccc(-c3ccc(-c4cnc([C@@H]5CCCN5C(=O)[C@@H](NC(=O)OC)C(C)C)[nH]4)cc3)cc2)[nH]1)C(C)C [daclatsvir] the “inhibition of cell proliferation” value (C-PVR cells; 5 μM, 72 hours, C-PVR cells) was 16%.

Nc1cccc2c1CN(C1CCC(=O)NC1=O)C2=O (stereo not shown) [lenalidomide] gave an inhibition of proliferation (C-PVR cells; concentration not given, 72 hours, C-PVR cells) of 24%.

CN1CCN(c2c(F)cc3c(=O)c(C(=O)O)cn4c3c2OCN4C)CC1 [marbofloxacin] gave an inhibition at 5 µM (C-PVR cells; [2]) of 30%.

With N[C@@H](Cc1ccc(N(CCCl)CCCl)cc1)C(=O)O [melphalan, 4-[bis(2-chloroethyl)amino]-L-phenylalanine] the “reduction of cell proliferation” value (C-PVR cells; 60 μM, 72 hours, C-PVR cells) was 83%, the inhibition at 30 µM (C-PVR cells; Homo sapiens, 30 μM, 72 hours, C-PVR cells) was 74% and the “inhibition of proliferation of C-PVR cells (in words)” value (C-PVR cells; concentrations of 30 nM and 60 nM (so in the source), FIG. 1A) was “effectively inhibited the proliferation of C-PVR cells”. For the same molecule, the “sprouting distance from the explant (in words)” value (human PVR explants; 30 μM alone) was “statistically significant reduction in sprouting distance” and the “total branch length of outgrowths” value (human PVR explants; 30 μM) was 27.5 mm.

Oc1ccc(C=Cc2cc(O)cc(O)c2)cc1 [resveratrol] was tested, and the inhibition at 5 µM (C-PVR cells; [2]) was 28%.

Work on CC(C)[C@H](O)C(=O)N[C@@H](C)C(=O)N[C@@H]1C(=O)N(C)CCc2ccccc21 [semagacestat] yielded an inhibition at 1 µM (C-PVR cells; [1]) of 28% and an inhibition at 5 µM (C-PVR cells; [2]) of 30%.

Work on Cc1cn([C@H]2C=C[C@@H](CO)O2)c(=O)[nH]c1=O [stavudine] yielded an inhibition at 5 µM (C-PVR cells; [2]) of 19%.
